{
  "source": "patent US6028107A",
  "about": "“Orthomolecular medical use of L-citrulline for vasoprotection, relaxative smooth muscle tone and cell protection” (priority 1997, dated 2000)",
  "key": {"human platelets": {"test_system": "human platelets", "settings": "300 μM extracellular; L-arginine 30 μM; cited from earlier work"}, "hippocampal brain tissue": {"test_system": "hippocampal brain tissue", "settings": "extracellular creatine increased by 3 mM; cited from earlier work"}, "muscle": {"test_system": "muscle", "settings": "oral supplementation daily; cited from earlier work"}, "platelet activity": {"test_system": "platelet activity", "settings": "cited from earlier work"}, "migraine aura": {"test_system": "migraine aura", "settings": "inhalation of small amounts; cited from earlier work"}, "[1]": {"settings": "oral 3-gram single doses, healthy humans; cited from earlier work"}, "[2]": {"settings": "rats, parenteral injection; cited from earlier work"}, "[3]": {"settings": "cited from earlier work"}, "[4]": {"test_system": "purified endothelial c-NOS", "settings": "purified enzyme in vitro; read-out: apparent Michaelis constant (Km); cited from earlier work"}, "endothelial c-NOS [5]": {"test_system": "endothelial c-NOS", "settings": "L-glutamine 600 μM; above 10 μM to 1,000 μM and more L-arginine; cited from earlier work"}, "[6]": {"test_system": "endothelium-dependent vasodilation", "settings": "infusion, hypercholesterolemia; cited from earlier work"}, "[7]": {"test_system": "glomerular hyperfiltration", "settings": "long-term oral, marked amounts; cited from earlier work"}, "uterine muscle strips": {"test_system": "uterine muscle strips", "settings": "added to extracellular fluid; cited from earlier work"}, "spermatocytes": {"test_system": "spermatocytes", "settings": "oral 4 to 20 grams daily; cited from earlier work"}, "[8]": {"test_system": "oligemic vasoconstriction", "settings": "rats; cited from earlier work"}, "creatine biosynthesis": {"test_system": "creatine biosynthesis", "settings": "dietary, man; cited from earlier work"}, "endothelial c-NOS [9]": {"test_system": "endothelial c-NOS", "settings": "plasma L-arginine above normal fasting about 75 to 90 μM; cited from earlier work"}, "arterial injury": {"test_system": "arterial injury", "settings": "2.25% in the drinking water, long-term; cited from earlier work"}, "[10]": {"assay": "Plasma ultrafiltrate L-arginine level after oral L-citrulline (Example 1)", "assay_type": "in vivo, human", "protocol": "A novel […] method for the quantitative assay of free L-arginine in blood plasma was developed. The method measures the color product from monosubstituted guanidines without and with L-arginase incubation to destroy the arginine and the potential guanido color product that would be derived from L-arginine. The photometric decrease in guanido color product measures specifically the concentration of L-arginine. The L-arginine methodology was applied to ultrafiltrates of blood plasma after ultrafiltrations of separated plasma samples were done at 4° Celsius.\nBlood plasma levels after 9 to 10 hours of overnight fasting averaged 83.0±1.1 μM (mean±SD of 3 determinations). Two hours after ingestion of 3.0 grams of L-citrulline in capsular form, plasma L-arginine level rose by […] to 132.7 μM. Overnight fasting plasma levels of L-arginine measured 125.2, 98.1, 90.8, 114.2, and 120.0 μM after ingestion of L-citrulline for 6 days at 6.0 grams, for 13 days at 2.4 grams, for 6 days at 3.4 grams, for 7 days at 6.8 grams, and for 2 days at 8.5 grams, respectively, in 2 divided doses (morning and nightly)."}, "[11]": {"assay": "Total bleeding time, forearm template method (Example 2)", "assay_type": "in vivo, human", "settings": "after 4 weeks of 5.4 grams daily in 2 divided doses", "protocol": "The same subject that was studied in Example 1 was studied by total bleeding time determinations before and during ingestion of daily doses of L-citrulline, in two divided subdoses. Forearm bleeding times were done by 3 to 5 mm cuts about 1 mm deep made perpendicular to the fold of the elbow during template methodology and a sphygmomanometer cuff maintained near 40 mm Hg pressure. Control bleeding times were 51/2 minutes. Bleeding time rose to 131/2 minutes after 2 days of ingestion of 8.5 grams daily. Bleeding time was prolonged at 13 minutes after 4 weeks of ingestion of 5.4 grams of L-citrulline daily in 2 divided doses."}, "migraine pains": {"test_system": "migraine pains", "assay": "Migraine attack, oral L-citrulline capsules (Example 4)", "assay_type": "in vivo, human", "settings": "2.7 grams, again about 1 hour later, third dose 6 hours later", "protocol": "[…] Their body weight was 59 kg. The subject gave a history of migraine pains with and without aura for about 15 years. Currently, the migraine pains were recurring about once to a few times weekly. Their parent had experienced migraine headaches for many years.\nShortly after the onset of a severe headache attack, the subject ingested 2.7 grams of L-citrulline, followed by another 2.7 grams about 1 hour later. They ingested a third dose of the same amount 6 hours later."}, "[12]": {"assay": "Tolerability during the study of Example 1", "assay_type": "in vivo, human", "excerpt": "They remained on their usual regular diet and continued working during the study."}, "[13]": {"settings": "plasma-borne; cited from earlier work"}, "[14]": {"settings": "intestinal-derived, portal venous blood; cited from earlier work"}},
  "note": "“Also recorded” adds a separate entry of the source.",
  "data": [
    {"molecule": "NCCC[C@H](N)C(=O)O", "note": "[L-ornithine]", "values": [
      {"measurement": "effect on L-arginine uptake", "setting": "human platelets", "result": "inhibitory"}
    ]},
    {"molecule": "CN(CC(=O)O)C(=N)N", "note": "[creatine]", "values": [
      {"measurement": "neurocyte viabilities after anoxic periods", "setting": "hippocampal brain tissue", "result": "greater neurocyte viabilities"},
      {"measurement": "neuronal free creatine and phosphocreatine levels", "setting": "hippocampal brain tissue", "result": "large increases in neuronal free creatine and phosphocreatine levels"},
      {"measurement": "muscle fatigue with physical exercise", "setting": "muscle", "result": "lessened muscle fatigue"},
      {"measurement": "muscle stores of free creatine and phosphocreatine", "setting": "muscle", "result": "greater muscle stores of free creatine and phosphocreatine"}
    ]},
    {"molecule": "CC(=O)Oc1ccccc1C(=O)O", "note": "[aspirin, acetylsalicylic acid]", "values": [
      {"measurement": "total bleeding time", "setting": "platelet activity; low-dose / small therapeutic doses orally", "result": "prolongs the total bleeding time; also recorded: prolonged"},
      {"measurement": "platelet activity", "setting": "platelet activity; low-dose intake", "result": "inhibits platelet activity"}
    ]},
    {"molecule": "NC(=O)CC[C@H](N)C(=O)O", "note": "[L-glutamine]", "values": [
      {"measurement": "effect on L-arginine uptake", "setting": "human platelets", "result": "inhibitory"}
    ]},
    {"molecule": "CCCCCON=O", "note": "[amyl nitrite]", "values": [
      {"measurement": "migraine aura", "setting": "migraine aura", "result": "temporarily reversed migraine aura in some cases"}
    ]},
    {"molecule": "NCCCC[C@H](N)C(=O)O", "note": "[L-lysine]", "values": [
      {"measurement": "effect on L-arginine uptake", "setting": "human platelets", "result": "inhibitory"}
    ]},
    {"molecule": "N=C(N)NCCC[C@H](N)C(=O)O", "note": "[L-arginine]", "values": [
      {"measurement": "plasma citrulline levels", "setting": "[1]", "result": "without a change in plasma citrulline levels"},
      {"measurement": "plasma half-life", "setting": "[2]", "result": "about 1 hour"},
      {"measurement": "time of peak plasma arginine level", "setting": "[3]; 24.8 grams of L-arginine (30 grams of arginine hydrochloride)", "result": "about 1 hour"},
      {"measurement": "time to return to near fasting values", "setting": "[3]; 24.8 grams of L-arginine", "result": 3, "unit": "h"},
      {"measurement": "peak plasma arginine relative to fasting values", "setting": "[3]; 24.8 grams of L-arginine, fasting 90±6 μM", "result": "about 3.6 times"},
      {"measurement": "Km", "setting": "[4]", "result": "~6", "unit": "µM"},
      {"measurement": "endothelial production of nitric oxide by c-NOS versus extracellular L-arginine", "setting": "endothelial c-NOS [5]", "result": "directly dependent upon the extracellular concentrations of L-arginine above 10 μM to levels of 1,000 μM and more without apparent saturation of the enzyme"},
      {"measurement": "impaired endothelium-dependent vasodilation", "setting": "[6]", "result": "impaired endothelium-dependent vasodilation is corrected"},
      {"measurement": "glomerular hyperfiltration and abnormal filtration fraction hemodynamics", "setting": "[7]", "result": "prevents the glomerular hyperfiltration and abnormal filtration fraction hemodynamics"},
      {"measurement": "proteinuria", "setting": "[7]", "result": "ameliorates the proteinuria"},
      {"measurement": "muscle quiescence", "setting": "uterine muscle strips", "result": "muscle quiescence"},
      {"measurement": "muscle relaxation", "setting": "uterine muscle strips", "result": "dose-dependent muscle relaxation"},
      {"measurement": "nitric oxide generation", "setting": "uterine muscle strips", "result": "nitric oxide generation"},
      {"measurement": "total sperm counts and motility rates", "setting": "spermatocytes", "result": "may improve total sperm counts and motility rates"},
      {"measurement": "oligemic vasoconstriction following cortical spreading depression", "setting": "[8]", "result": "reduces the oligemic vasoconstriction"},
      {"measurement": "creatine biosynthesis and pools of creatine and phosphocreatine in muscle and nerve", "setting": "creatine biosynthesis", "result": "leads to more creatine biosynthesis and slowly expansible pools of creatine and phosphocreatine"},
      {"measurement": "endothelial nitric oxide production", "setting": "endothelial c-NOS [9]", "result": "augments endothelial nitric oxide production"}
    ]},
    {"molecule": "Cl.N=C(N)NCCC[C@H](N)C(=O)O", "note": "[L-arginine hydrochloride]", "values": [
      {"measurement": "increase of plasma arginine levels", "setting": "arterial injury", "result": "about 2.6 times"},
      {"measurement": "neoendothelium-dependent arterial muscle relaxation", "setting": "arterial injury", "result": "enhanced neoendothelium-dependent arterial muscle relaxation"},
      {"measurement": "thickening after arterial injury", "setting": "arterial injury", "result": "reduced thickening"}
    ]},
    {"molecule": "NC(=O)NCCC[C@H](N)C(=O)O", "note": "[L-citrulline]", "values": [
      {"measurement": "rise of plasma L-arginine level", "setting": "[10]; 2 hours after single oral 3.0 grams, capsular form", "result": 62.4, "unit": "%"},
      {"measurement": "elevation of blood plasma L-arginine versus ingestion of equivalent amounts of L-arginine", "setting": "[10]; comparison with L-arginine as single amino acid or in protein meals", "result": "more efficient and longer lasting"},
      {"measurement": "blood plasma levels of L-arginine after overnight fasting 9 to 10 hours", "setting": "[10]; daily dosage in two divided subdoses", "result": "greater blood plasma levels of L-arginine even after overnight fasting"},
      {"measurement": "blood plasma concentrations of free L-arginine", "setting": "[10]; single oral doses of 3.0 grams or more, capsule form", "result": "promptly raised to much higher levels"},
      {"measurement": "Bleeding time", "setting": "[11]", "result": 13, "unit": "min"},
      {"measurement": "migraine pain", "setting": "migraine pains", "result": "markedly lessened in intensity and in duration"},
      {"measurement": "nausea during the migraine attack", "setting": "migraine pains", "result": "Much less nausea"},
      {"measurement": "adverse symptoms or untoward signs", "setting": "[12]", "result": "No adverse symptoms or untoward signs were experienced"},
      {"measurement": "blood-brain barrier passage", "setting": "[13]", "result": "readily passes the blood-brain barrier"},
      {"measurement": "liver uptake", "setting": "[14]", "result": "Without appreciable liver uptake"}
    ]}
  ]
}
